*1 amine or outer side, *2 acyl side, *3 side chain or, on linkers, in order; H or OH if unused. Where a SMILES comes first, the peptide text is derived from it. Bridges are numbered along the chain shown (N, C = ends). [ ]: non-standard residue; d: D form. Phe(3,4-Cl2) = N[C@@H](Cc1ccc(Cl)c(Cl)c1)C(=O)O; Pyridine(2,6-diCH2) = c1cc(C[*:1])nc(C[*:2])c1; mXylylene = c1cc(C[*:1])cc(C[*:2])c1; pXylylene = c1cc(C[*:2])ccc1C[*:1]; Hyp = O=C(O)[C@@H]1C[C@@H](O)CN1; Pen = CC(C)(S)[C@H](N)C(=O)O; Thp = NC1(C(=O)O)CCOCC1; Aib = CC(C)(N)C(=O)O

For the experiment, the target named is T1, GIPR (CHO-K1-hGIPR cells) (Homo sapiens, UniProt P48546).
T1 construct: host or cells: CHO-K1
T1 sequence (P48546 22-466): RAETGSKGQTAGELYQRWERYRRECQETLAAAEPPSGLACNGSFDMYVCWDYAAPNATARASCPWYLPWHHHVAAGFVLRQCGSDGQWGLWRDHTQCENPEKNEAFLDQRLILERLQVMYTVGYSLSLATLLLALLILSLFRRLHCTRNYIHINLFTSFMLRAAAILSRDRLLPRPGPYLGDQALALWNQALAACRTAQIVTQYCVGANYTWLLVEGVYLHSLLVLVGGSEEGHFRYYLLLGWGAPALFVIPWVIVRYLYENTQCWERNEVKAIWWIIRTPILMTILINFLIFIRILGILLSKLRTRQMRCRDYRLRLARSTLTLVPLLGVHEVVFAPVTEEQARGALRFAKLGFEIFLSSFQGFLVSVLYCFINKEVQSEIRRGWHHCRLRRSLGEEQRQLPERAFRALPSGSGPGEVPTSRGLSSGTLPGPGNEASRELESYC
As to the kind of experiment: FACS binding assay. The settings on record: competition with 20 nM GIP-057, 4° C. for 1 hour, read-out: pIC50 Category (converted). The method in brief:
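Read-out: flow cytometric median fluorescence intensity, APC/Cy5 channel, plotted vs peptide conc.; 4PL fit → EC50/pEC50 or IC50/pIC50. Cells: CHO-K1-hGIPR, Accutase-detached, 500.000/mL in PBS + 1% FCS. Detection: APC-streptavidin 1 μg/mL, 30 min, on ice.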
In general terms: Flow cytometry measures light scatter and fluorescence of single cells or particles in a stream.
On to `CC[C@H](C)[C@@H]1NC(=O)[C@H](CC(C)C)NC(=O)C2(CCOCC2)NC(=O)[C@@H](NC(=O)[C@@H](CC(C)C)NC(=O)[C@H](CCC(=O)O)NC(=O)[C@@H]2C[C@@H](O)CN2C(=O)[C@H](Cc2ccc(Cl)c(Cl)c2)NC(=O)[C@H](Cc2ccc(Cl)c(Cl)c2)NC(=O)[C@H](CC(=O)O)NC(C)=O)CSCc2cccc(n2)CSC[C@@H](C(N)=O)NC1=O` [GIP-323, Ac-Asp-Eaa-Eaa-Hyp-Glu-leu-[Cys(2Lut)-Thp-Leu-Ile-Cys]-NH2] (Ac-D[Phe(3,4-Cl2)][Phe(3,4-Cl2)][Hyp]E[dL]C[Thp]LIC-NH2; linker 7-11 via Pyridine(2,6-diCH2)), for which the IC50 is 0.1 to 0.794 µM.

Turning to `CC[C@H](C)[C@@H]1NC(=O)[C@H](CC(C)C)NC(=O)[C@H](C)NC(=O)[C@@H](NC(=O)[C@H](CC(C)C)NC(=O)[C@H](CCC(=O)O)NC(=O)[C@@H]2CCCN2C(=O)[C@H](Cc2c[nH]c3ccccc23)NC(=O)[C@H](Cc2c[nH]c3ccccc23)NC(C)=O)CSCc2cccc(c2)CSC[C@@H](C(N)=O)NC1=O` [GIP-324, Ac-Trp-Trp-Pro-Glu-Leu-[Cys(3MeBn)-Ala-Leu-Ile-Cys]-NH2] (Ac-WWPELCALIC-NH2; linker 6-10 via mXylylene), the IC50 is greater than 1 µM.

Consider `CC[C@H](C)[C@@H]1NC(=O)[C@H](CC(C)C)NC(=O)[C@H](C)NC(=O)[C@@H](NC(=O)[C@H](CC(C)C)NC(=O)[C@H](CCC(=O)O)NC(=O)[C@@H]2CCCN2C(=O)[C@H](Cc2c[nH]c3ccccc23)NC(C)=O)CSCc2cccc(c2)CSC[C@@H](C(N)=O)NC1=O` [GIP-325, Ac-Trp-Pro-Glu-Leu-[Cys(3MeBn)-Ala-Leu-Ile-Cys]-NH2] (Ac-WPELCALIC-NH2; linker 5-9 via mXylylene), for which the IC50 was greater than 1 µM.

`CC[C@H](C)[C@@H]1NC(=O)[C@H](CC(C)C)NC(=O)[C@H](C)NC(=O)[C@@H](NC(=O)[C@H](CC(C)C)NC(=O)[C@H](CCC(=O)O)NC(=O)[C@@H]2CCCN2C(C)=O)CSCc2cccc(c2)CSC[C@@H](C(N)=O)NC1=O` [GIP-326, Ac-Pro-Glu-Leu-[Cys(3MeBn)-Ala-Leu-Ile-Cys]-NH2] (Ac-PELCALIC-NH2; linker 4-8 via mXylylene): the IC50 is greater than 1 µM.

Turning to `CC[C@H](C)[C@@H]1NC(=O)[C@H](CC(C)C)NC(=O)[C@H](C)NC(=O)[C@@H](NC(=O)[C@H](CC(C)C)NC(=O)[C@H](CCC(=O)O)NC(C)=O)CSCc2cccc(c2)CSC[C@@H](C(N)=O)NC1=O` [GIP-327, Ac-Glu-Leu-[Cys(3MeBn)-Ala-Leu-Ile-Cys]-NH2] (Ac-ELCALIC-NH2; linker 3-7 via mXylylene), the IC50 is greater than 1 µM.

As to `CC[C@H](C)[C@@H]1NC(=O)[C@H](CC(C)C)NC(=O)[C@H](C)NC(=O)[C@@H](NC(=O)[C@H](CC(C)C)NC(=O)[C@H](CCC(=O)O)NC(=O)[C@H]2CCCN2C(=O)[C@H](Cc2c[nH]c3ccccc23)NC(=O)[C@H](Cc2c[nH]c3ccccc23)NC(=O)[C@H](CC(=O)O)NC(=O)[C@H](Cc2ccc(O)cc2)NC(=O)[C@@H](N)CCSC)CSCc2cccc(c2)CSC[C@@H](C(N)=O)NC1=O` [GIP-328, H-Met-Tyr-Asp-Trp-Trp-pro-Glu-Leu-[Cys(3MeBn)-Ala-Leu-Ile-Cys]-NH2] (H-MYDWW[dP]ELCALIC-NH2; linker 9-13 via mXylylene), the IC50 was greater than 1 µM.

With `CC[C@H](C)[C@@H]1NC(=O)[C@H](CC(C)C)NC(=O)[C@H](C)NC(=O)[C@@H](NC(=O)[C@H](CC(C)C)NC(=O)[C@H](CCC(=O)O)NC(=O)[C@@H]2CCCN2C(=O)[C@@H](Cc2c[nH]c3ccccc23)NC(=O)[C@H](Cc2c[nH]c3ccccc23)NC(=O)[C@H](CC(=O)O)NC(=O)[C@H](Cc2ccc(O)cc2)NC(=O)[C@@H](N)CCSC)CSCc2cccc(c2)CSC[C@@H](C(N)=O)NC1=O` [GIP-329, H-Met-Tyr-Asp-Trp-trp-Pro-Glu-Leu-[Cys(3MeBn)-Ala-Leu-Ile-Cys]-NH2] (H-MYDW[dW]PELCALIC-NH2; linker 9-13 via mXylylene), the IC50 was greater than 1 µM.

Consider `CC[C@H](C)[C@@H]1NC(=O)[C@@H](CC(C)C)NC(=O)[C@H](C)NC(=O)[C@@H](NC(=O)[C@H](CC(C)C)NC(=O)[C@H](CCC(=O)O)NC(=O)[C@@H]2CCCN2C(=O)[C@H](Cc2c[nH]c3ccccc23)NC(=O)[C@H](Cc2c[nH]c3ccccc23)NC(=O)[C@H](CC(=O)O)NC(=O)[C@H](Cc2ccc(O)cc2)NC(=O)[C@@H](N)CCSC)CSCc2cccc(c2)CSC[C@@H](C(N)=O)NC1=O` [GIP-330] (H-MYDWWPELCA[dL]IC-NH2; linker 9-13 via mXylylene), for which the IC50 is greater than 1 µM.

Regarding `CC[C@H](C)[C@@H]1NC(=O)[C@H](CC(C)C)NC(=O)[C@H](C)NC(=O)[C@@H](NC(=O)[C@H](CC(C)C)NC(=O)[C@H](CCC(=O)O)NC(=O)[C@@H]2CCCN2C(=O)[C@H](Cc2c[nH]c3ccccc23)NC(=O)[C@H](Cc2c[nH]c3ccccc23)NC(=O)[C@H](CC(=O)O)NC(=O)[C@H](Cc2ccc(O)cc2)NC(=O)[C@@H](N)CCSC)CSCc2ccc(cc2)CSC[C@@H](C(N)=O)NC1=O` [GIP-331] (H-MYDWWPELCALIC-NH2; linker 9-13 via pXylylene), the IC50 was greater than 1 µM.

Regarding `CC[C@H](C)[C@@H]1NC(=O)[C@H](CC(C)C)NC(=O)[C@H](C)NC(=O)[C@@H](NC(=O)[C@H](CC(C)C)NC(=O)[C@H](CCC(=O)O)NC(=O)[C@@H]2CCCN2C(=O)[C@H](Cc2c[nH]c3ccccc23)NC(=O)[C@H](Cc2c[nH]c3ccccc23)NC(=O)[C@H](C)NC(=O)[C@H](Cc2ccc(O)cc2)NC(=O)[C@@H](N)CCSC)CSCc2cccc(c2)CSC[C@@H](C(N)=O)NC1=O` [GIP-332] (H-MYAWWPELCALIC-NH2; linker 9-13 via mXylylene), the IC50 was greater than 1 µM.

Regarding `CC[C@H](C)[C@@H]1NC(=O)[C@H](CC(C)C)NC(=O)[C@H](C)NC(=O)[C@@H](NC(=O)[C@H](CC(C)C)NC(=O)[C@H](CCC(=O)O)NC(=O)[C@@H]2CCCN2C(=O)[C@H](Cc2c[nH]c3ccccc23)NC(=O)[C@H](C)NC(=O)[C@H](CC(=O)O)NC(=O)[C@H](Cc2ccc(O)cc2)NC(=O)[C@@H](N)CCSC)CSCc2cccc(c2)CSC[C@@H](C(N)=O)NC1=O` [GIP-333] (H-MYDAWPELCALIC-NH2; linker 9-13 via mXylylene), the IC50 was greater than 1 µM.

On to `CC[C@H](C)[C@@H]1NC(=O)[C@H](CC(C)C)NC(=O)[C@H](C)NC(=O)[C@@H](NC(=O)[C@H](CC(C)C)NC(=O)[C@H](CCC(=O)O)NC(=O)[C@@H]2CCCN2C(=O)[C@H](C)NC(=O)[C@H](Cc2c[nH]c3ccccc23)NC(=O)[C@H](CC(=O)O)NC(=O)[C@H](Cc2ccc(O)cc2)NC(=O)[C@@H](N)CCSC)CSCc2cccc(c2)CSC[C@@H](C(N)=O)NC1=O` [GIP-334] (H-MYDWAPELCALIC-NH2; linker 9-13 via mXylylene), for which the IC50 was greater than 1 µM.

`CC[C@H](C)[C@@H]1NC(=O)[C@H](CC(C)C)NC(=O)[C@H](C)NC(=O)[C@@H](NC(=O)[C@H](CC(C)C)NC(=O)[C@H](C)NC(=O)[C@@H]2CCCN2C(=O)[C@H](Cc2c[nH]c3ccccc23)NC(=O)[C@H](Cc2c[nH]c3ccccc23)NC(=O)[C@H](CC(=O)O)NC(=O)[C@H](Cc2ccc(O)cc2)NC(=O)[C@@H](N)CCSC)CSCc2cccc(c2)CSC[C@@H](C(N)=O)NC1=O` [GIP-335] (H-MYDWWPALCALIC-NH2; linker 9-13 via mXylylene): the IC50 is greater than 1 µM.

As for `CC[C@H](C)[C@@H]1NC(=O)[C@H](CC(C)C)NC(=O)[C@H](C)NC(=O)[C@@H](NC(=O)[C@H](C)NC(=O)[C@H](CCC(=O)O)NC(=O)[C@@H]2CCCN2C(=O)[C@H](Cc2c[nH]c3ccccc23)NC(=O)[C@H](Cc2c[nH]c3ccccc23)NC(=O)[C@H](CC(=O)O)NC(=O)[C@H](Cc2ccc(O)cc2)NC(=O)[C@@H](N)CCSC)CSCc2cccc(c2)CSC[C@@H](C(N)=O)NC1=O` [GIP-336] (H-MYDWWPEACALIC-NH2; linker 9-13 via mXylylene), the IC50 is greater than 1 µM.

With `CSCC[C@H](N)C(=O)N[C@@H](Cc1ccc(O)cc1)C(=O)N[C@@H](CC(=O)O)C(=O)N[C@@H](Cc1c[nH]c2ccccc12)C(=O)N[C@@H](Cc1c[nH]c2ccccc12)C(=O)N1CCC[C@H]1C(=O)N[C@@H](CCC(=O)O)C(=O)N[C@@H](CC(C)C)C(=O)N[C@H]1CSCc2cccc(c2)CSC[C@@H](C(N)=O)NC(=O)[C@H](C)NC(=O)[C@H](CC(C)C)NC(=O)[C@H](C)NC1=O` [GIP-337] (H-MYDWWPELCALAC-NH2; linker 9-13 via mXylylene), the IC50 is greater than 1 µM.

For the molecule `CC[C@H](C)[C@@H]1NC(=O)[C@H](CC(C)C)NC(=O)C(C)(C)NC(=O)[C@@H](NC(=O)[C@H](CC(C)C)NC(=O)[C@H](CCC(=O)O)NC(=O)[C@@H]2CCCN2C(=O)[C@H](Cc2c[nH]c3ccccc23)NC(=O)[C@H](Cc2c[nH]c3ccccc23)NC(=O)[C@H](CC(=O)O)NC(C)=O)C(C)(C)SCc2cccc(c2)CSC[C@@H](C(N)=O)NC1=O` [GIP-338, Ac-Asp-Trp-Trp-Pro-Glu-Leu-[Pen(3MeBn)-Aib-Leu-Ile-Cys]-NH2] (Ac-DWWPEL[Pen][Aib]LIC-NH2; linker 7-11 via mXylylene), the IC50 is greater than 1 µM.

For the molecule `CC[C@H](C)[C@@H]1NC(=O)[C@H](CC(C)C)NC(=O)C(C)(C)NC(=O)[C@@H](NC(=O)[C@H](CC(C)C)NC(=O)[C@H](CCC(=O)O)NC(=O)[C@@H]2CCCN2C(=O)[C@H](Cc2c[nH]c3ccccc23)NC(=O)[C@H](Cc2c[nH]c3ccccc23)NC(=O)[C@H](CC(=O)O)NC(C)=O)CSCc2cccc(c2)CSC(C)(C)[C@@H](C(N)=O)NC1=O` [GIP-339, Ac-Asp-Trp-Trp-Pro-Glu-Leu-[Cys(3MeBn)-Aib-Leu-Ile-Pen]-NH2] (Ac-DWWPELC[Aib]LI[Pen]-NH2; linker 7-11 via mXylylene), the IC50 is greater than 1 µM.

The values are drawn from patent publication US20250296971A1, “GASTRIC INHIBITORY PEPTIDE RECEPTOR LIGANDS” (priority 2021, published 2025).
